A word on the pIC50: it is the negative decadic logarithm of the IC50, by convention in mol/L. For orientation: melting point means the temperature, or range, at which the solid turns liquid.

pIC50: −log10 of the molar value. Where only a bound is given, the exact number is not on record here.

Data set [1] relates to TLR7 induced IL-6 secretion in human mononuclear cells (PBMC's). As to the kind of experiment: TLR7 induced IL-6 in human PBMC's. In kind it is cell-based. The conditions noted are these: TLR7 specific ligand 2 uM overnight, IL-6 AlphaLISA. An outline of the steps: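 Fresh or frozen healthy-donor PBMCs pre-treated 30 min at 37 °C with compounds (25 uM to 0.4 nM) before overnight (16-18 h) stimulation with TLR7 ligand at 2 uM. IL-6 in supernatant quantified by AlphaLISA.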

The target in the next data set is T1, IRAK4 (Homo sapiens, UniProt Q9NWZ3).
T1 construct: His-TEV-IRAK4 (1-460); His (N); TEV cleavage site (N)
T1 sequence (Q9NWZ3 1-460): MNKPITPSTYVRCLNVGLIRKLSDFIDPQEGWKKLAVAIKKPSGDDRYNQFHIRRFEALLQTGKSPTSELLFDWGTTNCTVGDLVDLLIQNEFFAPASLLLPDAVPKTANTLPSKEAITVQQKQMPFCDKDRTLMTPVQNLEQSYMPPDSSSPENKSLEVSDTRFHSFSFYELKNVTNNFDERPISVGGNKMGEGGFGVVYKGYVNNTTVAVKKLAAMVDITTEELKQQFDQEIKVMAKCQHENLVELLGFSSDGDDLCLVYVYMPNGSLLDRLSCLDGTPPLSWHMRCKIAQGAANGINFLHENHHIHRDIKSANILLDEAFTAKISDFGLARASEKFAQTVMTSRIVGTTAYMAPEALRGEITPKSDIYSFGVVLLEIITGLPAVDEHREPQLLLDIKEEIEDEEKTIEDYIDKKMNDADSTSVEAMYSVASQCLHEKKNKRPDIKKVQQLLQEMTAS
Briefly: IRAK4 enzymatic assay (ADP-Glo luminescence). It is filed as biochemical. The conditions noted are these: human recombinant His-TEV-IRAK4 (1-460), STK1-biotin peptide substrate. An outline of the steps: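 His-TEV-IRAK4(1-460) at […] was preincubated with compound (10 μM to 0.5 nM) for 15 min at RT in 50 mM Hepes pH 7.0 with MgCl2, MnCl2, DTT, BSA and Triton. Reactions with ATP ([…]) and STK1-biotin peptide (300 nM) ran 2 h at RT. ADP formed was read by ADP-Glo luminescence.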
For orientation: ADP-Glo first removes unused ATP, then detects ADP through luciferase.

For a further data set, the target named is T2, IRAK1 (Homo sapiens, UniProt P51617).
T2 construct: His-TEV-IRAK1 (194-712); His (N); TEV cleavage site (N)
T2 sequence (P51617 194-712): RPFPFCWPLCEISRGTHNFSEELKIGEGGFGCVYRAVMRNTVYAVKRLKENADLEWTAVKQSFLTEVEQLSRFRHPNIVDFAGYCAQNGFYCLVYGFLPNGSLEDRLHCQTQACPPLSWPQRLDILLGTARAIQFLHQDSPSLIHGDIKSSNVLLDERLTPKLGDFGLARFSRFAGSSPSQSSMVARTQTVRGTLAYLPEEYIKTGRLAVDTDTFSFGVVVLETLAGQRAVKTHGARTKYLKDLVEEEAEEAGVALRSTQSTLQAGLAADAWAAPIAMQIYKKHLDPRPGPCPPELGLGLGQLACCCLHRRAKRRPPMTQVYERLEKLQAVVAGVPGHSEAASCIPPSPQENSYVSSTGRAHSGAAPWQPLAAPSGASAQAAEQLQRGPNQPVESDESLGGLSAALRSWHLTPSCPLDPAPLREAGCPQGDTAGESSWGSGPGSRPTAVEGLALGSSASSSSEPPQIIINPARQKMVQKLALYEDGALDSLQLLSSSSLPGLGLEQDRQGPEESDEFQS
As to the kind of experiment: IRAK1 enzymatic assay (ADP-Glo luminescence). In kind it is biochemical. The conditions noted are these: human recombinant His-TEV-IRAK1 (194-712), ATP 1 μM; read-out: IRAK 1 IC50. The method in brief: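 His-TEV-IRAK1(194-712) ([…]) preincubated 15 min RT with compounds (10 μM–0.5 nM) in 50 mM Hepes pH 7.0, 10 mM MgCl2, 2 mM DTT, 0.1% BSA. Reaction started with 1 μM ATP, 2 h RT. ADP formed read by ADP-Glo luminescence.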

On to `CN1CCOC(c2ccc3c(c2)nc(NC(=O)c2cccc(C(F)F)c2)n3CC(C)(F)CO)C1=O` (stereo not drawn) [Compound 26, 3-Difluoromethyl-N-[1-(2-fluoro-3-hydroxy-2-methyl-propyl)-5-(4-methyl-3-oxo-morpholin-2-yl)-1H-benzoimidazol-2-yl]-benzamide], for which the melting point was in the range of 118 to 120 °C. Further, the pIC50 in data set [1] (Homo sapiens, PBMC) was 6.00 to 7.00. Further, the negative-log IC50 (pIC50) on IRAK4 was not below 7.00. For the same compound, the pIC50 on IRAK1 is 6.00 to 7.00.

In turn, `CN1C(=O)CCC1(C)c1ccc2c(c1)nc(NC(=O)c1cccc(C(F)(F)F)c1)n2CCCO` (stereo not drawn) [Compound 32, N-[5-(1,2-Dimethyl-5-oxo-pyrrolidin-2-yl)-1-(3-hydroxy-propyl)-1H-benzoimidazol-2-yl]-3-trifluoromethyl-benzamide] yielded a melting point of 99 to 100 °C. In data set [1] (Homo sapiens, PBMC), this compound had a pIC50 of 5.00 to 6.00. The pIC50 at IRAK4 is not below 7.00. Further, the pIC50 on IRAK1 was 6.00 to 7.00.

In the case of `CN1CCC(C)(c2ccc3c(c2)nc(NC(=O)c2cccc(C(F)F)c2)n3CCCO)C1=O` (stereo not drawn) [Compound 30, 3-Difluoromethyl-N-[5-(1,3-dimethyl-2-oxo-pyrrolidin-3-yl)-1-(3-hydroxy-propyl)-1H-benzoimidazol-2-yl]-benzamide], the melting point was 78 to 81 °C. Besides, the pIC50 in data set [1] (Homo sapiens, PBMC) is 5.00 to 6.00. Further, the pIC50 at IRAK4 was not below 7.00.

As for `CN1CCC(c2ccc3c(c2)nc(NC(=O)c2cccc(C(F)F)c2)n3CCCO)C1=O` (stereo not drawn) [Compound 24, 3-(difluoromethyl)-N-[1-(3-hydroxypropyl)-5-(1-methyl-2-oxopyrrolidin-3-yl)-1H-1,3-benzodiazol-2-yl]benzamide], the melting point is 166 to 168 °C. The negative logarithm of the IC50 (pIC50) in data set [1] (Homo sapiens, PBMC) is not below 7.00. Moreover, at IRAK4, the pIC50 was not below 7.00. Also, the pIC50 at IRAK1 was 6.00 to 7.00.

In turn, `CN1CCOC(c2ccc3c(c2)nc(NC(=O)c2cccc(C(F)(F)F)c2)n3CC(C)(F)CO)C1=O` (stereo not drawn) [Compound 28, N-[1-(2-Fluoro-3-hydroxy-2-methyl-propyl)-5-(4-methyl-3-oxo-morpholin-2-yl)-1H-benzoimidazol-2-yl]-3-trifluoromethyl-benzamide] showed a melting point of 121 to 124 °C. This compound showed a pIC50 in data set [1] (Homo sapiens, PBMC) not below 7.00. Also, on IRAK4, the pIC50 is not below 7.00. Also, on IRAK1, the pIC50 was 6.00 to 7.00.

Compound `CN1CC(c2ccc3c(c2)nc(NC(=O)c2cccc(C(F)F)c2)n3CCCO)C(C)(C)C1=O` (stereo not drawn) [Compound 27, 3-Difluoromethyl-N-[1-(3-hydroxy-propyl)-5-(1,4,4-trimethyl-5-oxo-pyrrolidin-3-yl)-1H-benzoimidazol-2-yl]-benzamide] yielded a melting point of 95 to 96 °C. The same compound gave a pIC50 in data set [1] (Homo sapiens, PBMC) of 6.00 to 7.00. In addition, the pIC50 at IRAK4 was not below 7.00. For the same compound, on IRAK1, the pIC50 is 6.00 to 7.00.

In the case of `CN1CCCC(c2ccc3c(c2)[nH]/c(=N\C(=O)c2cccc(C(F)(F)F)c2)n3CCC(O)CO)C1=O` (single isomer, unassigned) [Compound 22c], the pIC50 in data set [1] was 5.00 to 6.00; on IRAK4, not below 7.00; at IRAK1, 6.00 to 7.00.

For the compound `CN1CCC(C)(c2ccc3c(c2)nc(NC(=O)c2cccc(C(F)(F)F)c2)n3CCCO)C1=O` (single isomer, unassigned) [Compound 29b], the negative logarithm of the IC50 (pIC50) was 6.00 to 7.00 in data set [1], not below 7.00 on IRAK4 and 6.00 to 7.00 on IRAK1.

Turning to `CN1CCC(C)(c2ccc3c(c2)nc(NC(=O)c2cccc(C(F)(F)F)c2)n3CCCO)C1=O` (stereo not drawn) [Compound 29, N-[5-(1,3-Dimethyl-2-oxo-pyrrolidin-3-yl)-1-(3-hydroxy-propyl)-1H-benzoimidazol-2-yl]-3-trifluoromethyl-benzamide], the melting point is 72 to 74 °C. On IRAK4, the pIC50 is not below 7.00. The pIC50 at IRAK1 is 5.00 to 6.00.

In the case of `CN1CCC(C)(c2ccc3c(c2)nc(NC(=O)c2cccc(C(F)F)c2)n3CCCO)C1=O` (single isomer, unassigned) [Compound 30a], the negative logarithm of the IC50 (pIC50) in data set [1] (Homo sapiens, PBMC) is 5.00 to 6.00; on IRAK4, not below 7.00; on IRAK1, 5.00 to 6.00.

`CC(=O)N1C2CCC1CC(c1ccc3c(c1)[nH]/c(=N\C(=O)c1cccc(C(F)(F)F)c1)n3CCCO)C2` (stereo not drawn) [Compound 15, (E)-N-(5-(8-acetyl-8-azabicyclo[3.2.1]octan-3-yl)-1-(3-hydroxypropyl)-1H-benzo[d]imidazol-2(3H)-ylidene)-3-(trifluoromethyl)benzamide]: the pIC50 in data set [1] (Homo sapiens, PBMC) is not below 7.00; on IRAK4, not below 7.00; at IRAK1, not below 7.00.

As for `CN1C[C@H](c2ccc3c(c2)nc(NC(=O)c2cccc(C(F)(F)F)c2)n3CCCO)C(C)(C)C1=O` [Compound 25b, N-[1-(3-hydroxypropyl)-5-[(3R)-1,4,4-trimethyl-5-oxopyrrolidin-3-yl]-1H-1,3-benzodiazol-2-yl]-3-(trifluoromethyl)benzamide], the pIC50 was 6.00 to 7.00 in data set [1] (Homo sapiens, PBMC); not below 7.00 at IRAK4; 6.00 to 7.00 at IRAK1.

In the case of `CN1CC(c2ccc3c(c2)[nH]/c(=N\C(=O)c2cccc(C(F)(F)F)c2)n3CCCO)CC1=O` (stereo not drawn) [Compound 10, (E)-N-(1-(3-hydroxypropyl)-5-(1-methyl-5-oxopyrrolidin-3-yl)-1H-benzo[d]imidazol-2(3H)-ylidene)-3-(trifluoromethyl)benzamide], the pIC50 in data set [1] (Homo sapiens, PBMC) is 6.00 to 7.00; on IRAK4, not below 7.00; on IRAK1 it was 6.00 to 7.00.

In turn, `CN1CC(c2ccc3c(c2)nc(NC(=O)c2cccc(C(F)(F)F)c2)n3CCCO)C(C)(C)C1=O` (stereo not drawn) [Compound 25, N-[1-(3-Hydroxy-propyl)-5-(1,4,4-trimethyl-5-oxo-pyrrolidin-3-yl)-1H-benzoimidazol-2-yl]-3-trifluoromethyl-benzamide] returned a melting point of 104 to 106 °C. Moreover, the pIC50 in data set [1] (Homo sapiens, PBMC) is 6.00 to 7.00. The pIC50 on IRAK4 is not below 7.00. In addition, at IRAK1, the pIC50 is not below 7.00.

Turning to `CN1C(=O)CCC1(C)c1ccc2c(c1)nc(NC(=O)c1cccc(C(F)(F)F)c1)n2CCCO` (single isomer, unassigned) [Compound 32b], the pIC50 in data set [1] was 5.00 to 6.00; at IRAK4 it was not below 7.00; on IRAK1, 6.00 to 7.00.

Take `CN1CC(c2ccc3c(c2)nc(NC(=O)c2cccc(C(F)F)c2)n3CCCO)C(C)(C)C1=O` (single isomer, unassigned) [Compound 27b]: the pIC50 in data set [1] is 6.00 to 7.00; at IRAK4 it was not below 7.00; on IRAK1, 6.00 to 7.00.

The values above are taken from patent US9969710B2, “Heteroaryl compounds as IRAK inhibitors and uses thereof” (Merck Patent GmbH, priority 2015, dated 2018).
